Measurements: patent US20220073496A1, “NOVEL QUINOLINE DERIVATIVE INHIBITOR” (Nanjing Transthera Biosciences Co., Ltd., priority 2018, published 2022)
Like-named read-outs stand apart in the source and are kept apart here.

Legend:
[1] = Stability in liver microsome of mice; assay type: in vitro ADME; conditions: liver microsomes; Mouse liver microsome 0.5 mg protein/mL, compound 1 μM, 37° C.
Method: Assay 1: Stability assessment of the compounds of the present invention in liver microsome of mice and dogs
Test substances: the compounds of the present invention, wherein the structures and preparations thereof were as described above.
The composition of the incubation system:
Preparation of Test Substances:
An appropriate amount of the compound was accurately weighed and dissolved in DMSO to prepare a 5.0 mM stock solution. The 5.0 mM stock solution was diluted to 1.0 mM with DMSO, and finally diluted with water to a 10 μM test substance working solution for use (the DMSO content in the reaction system was 0.1%).
(1) The liver microsome (20 mg protein/mL) was taken out from the −80° C. refrigerator, pre-incubated at 37° C. with a water-bathing constant temperature vibrator for 3 minutes, and melted for use.
(2) A mixed solution of the incubation system (excluding compounds and β-NADPH) according to the above “composition of the incubation system” for the assay was prepared, and pre-incubated at 37° C. with a water-bathing constant temperature vibrator for 2 minutes.
(3) Control group (excluding β-NADPH): 30 μL of water and 30 μL of compound working solution (10 μM) were added to 240 μL of the mixed solution of the incubation system of step (2), and vortexed for 30 seconds to mix well. The total reaction volume was 300 μL. A duplicate sample was prepared. The sample was incubated at 37° C. with a water-bathing constant temperature vibrator. The timekeeping began and the sampling time points were set at 0 minute and 60 minutes.
(4) Sample group: 70 μL of β-NADPH solution (10 mM) and 70 μL of compound working solution (10 μM) were added to 560 μL of the mixed solution of step (2). The total reaction volume was 700 μL. The resulting mixture was vortexed for 30 seconds to mix well. A duplicate sample was prepared. The sample was incubated at 37° C. with a water-bathing constant temperature vibrator. The timekeeping began and the sampling time points were set at 0 minute, 5 minutes, 10 minutes, 20 minutes, 30 minutes, and 60 minutes after timekeeping.
(5) After vortexing for 3 minutes, the sample was centrifuged at 4000 rpm for 10 minutes.
(6) 50 μL of the supernatant was taken and 150 μL of water was added. The resulting mixture was vortexed to mix well, and analyzed by LC/MS/MS.
The half-life (t1/2) and clearance rate (Cl) were calculated using the following first-order kinetic formula:
Vd=1/protein content in liver microsome
Note: k was the slope of the logarithm of the remaining amount of the compound versus time, and Vd was the apparent distribution volume.

Rat PK evaluation = assay type: in vivo; conditions: SD rats; for Vz_obs iv (apparent distribution volume) / bioavailability / AUC(0-t) / clearance / half-life: n = 3; for bioavailability / AUC(0-t) / clearance / half-life / Tmax: rat, plasma; for bioavailability: read-out: F % (absolute bioavailability); for clearance: read-out: Cl_obs iv (clearance rate) (converted); for Tmax: n = 3, median, read-out: Tmax po (time to peak plasma concentration)
Method: Assay 2: Rat PK Evaluation for the Compounds of the Present Invention
Animal Administration and Sample Collection:
The test compounds 14, 15, 16, 20, 29, 30, 31, 32, 33, 34, 36, 37, 47 and 48 were dissolved in 5% DMSO+20% (30% solutol)+75% saline to prepare the compound solutions. Each of the compound solutions was intragastrically administered to SD rats at a dose of 5.0 mg/kg. The time points of blood collection were: 15 minutes, 30 minutes, 1 hour, 2 hours, 4 hours, 6 hours, 8 hours, 24 hours, 30 hours, and 48 hours.
The test compounds 38, 39, 40 and 41 were dissolved in 5% NMP+5% Tween-80+90% saline to prepare the compound solutions. Each of the compound solutions was intragastrically administered to SD rats at a dose of 5.0 mg/kg. The time points of blood collection were: 15 minutes, 30 minutes, 1 hour, 2 hours. 4 hours, 6 hours, 8 hours, 24 hours, 30 hours, and 48 hours.
The test compounds 14, 15, 16, 20, 29, 30, 31, 32, 33, 34, 36, 37, 47 and 48 were dissolved in 5% DMSO+20% (30% solutol)+75% saline to prepare the compound solutions. Each of the compound solutions was administered by intravenous bolus injection to SD rats at a dose of 1 mg/kg. The time points of blood collection were: 5 minutes, 15 minutes, 30 minutes, 1 hour, 2 hours, 4 hours, 6 hours, 8 hours, 24 hours, and 48 hours.
The test compounds 38, 39, 40 and 41 were dissolved in 5% NMP+5% Tween-80+90% saline to prepare the compound solutions. Each of the compound solutions was administered by intravenous bolus injection to SD rats at a dose of 1 mg/kg. The time points of blood collection were: 5 minutes, 15 minutes, 30 minutes, 1 hour, 2 hours, 4 hours, 6 hours, 8 hours, 24 hours, and 48 hours.
The animal was fixed. The tail was heated in a water bath pot 10 minutes before each time point. About 100 μL of blood was collected through the tail vein. The blood was collected and placed in an anti-coagulation tube containing EDTA-K2. The blood sample was centrifuged at 8000 rpm for 6 minutes at 4° C. to obtain a plasma sample. The plasma was prepared within 30 minutes after the blood collection. The plasma was stored in a −80° C. refrigerator before testing.
The sample to be tested was taken out from the −80° C. refrigerator, naturally melted at room temperature and vortexed for 5 minutes. 20 μL of plasma sample was accurately pipetted into a 1.5 mL centrifuge tube. 200 μL of an internal standard working solution (a solution of tolbutamide in methanol) having a concentration of 100 ng/mL was added and mixed well. The mixture was vortexed for 5 minutes, and centrifuged at 12000 rpm for 5 minutes. 50 μL of the supernatant was accurately pipetted into a 96-well plate pre-filled with 150 μL/well of water. The plate was vortexed for 5 minutes and mixed well, and then the LC-MS/MS determination and analysis were performed.
The concentration of the test substance was output using Analyst 1.6.3 from AB Company. Parameters such as mean, standard deviation, and coefficient of variation were calculated with Microsoft Excel (direct outputs from Analyst 1.6.3 were not calculated), and the PK parameters were calculated using Pharsight Phoenix 6.1 software NCA (Tmax was the median).

[2] = IV 1 mg/kg, read-out: AUClast iv (area under the drug-time curve from 0 to 48 hours)
[3] = IV 1 mg/kg, read-out: tz1/2 iv (terminal elimination half-life) (converted)
[4] = PO 5 mg/kg, read-out: AUClast po (area under the drug-time curve from 0 to 48 hours)
[5] = PO 5 mg/kg, read-out: tz1/2 po (terminal elimination half-life) (converted)

COc1cc2nccc(Oc3cnc(NC(=O)c4cn(C5CC5)cc(-c5ccc(F)cc5)c4=O)nc3)c2cc1OC [Compound 32, 1-cyclopropyl-N-(5-((6,7-dimethoxyquinolin-4-yl)oxy)pyrimidine-2-yl)-5-(4-fluorophenyl)-4-oxo-1,4-dihydropyridin-3-carboxamide]
half-life at 1 μM [1]: 4.13 h | microsomal CLint at 1 μM [1]: 5.6 µL/min/mg | Vz_obs iv (apparent distribution volume) (Rat PK evaluation; IV 1 mg/kg): 0.23 L/kg | bioavailability (Rat PK evaluation; IV 1 mg/kg, PO 5 mg/kg): 75.4% | AUC(0-t) (Rat PK evaluation; [2]): 23.9 µg·h/mL | clearance (Rat PK evaluation; IV 1 mg/kg): 0.045 L/h/kg | half-life (Rat PK evaluation; [3]): 3.74 h | Tmax (Rat PK evaluation; PO 5 mg/kg): 4 h | AUC(0-t) (Rat PK evaluation; [4]): 90.5 µg·h/mL | half-life (Rat PK evaluation; [5]): 5.04 h

COc1cc2nccc(Oc3ccc(NC(=O)c4nn(C(C)C)cc(-c5ccc(F)cc5)c4=O)cn3)c2cc1OC [Compound 29, N-(6-((6,7-dimethoxyquinolin-4-yl)oxy)pyridin-3-yl)-1-isopropyl-4-oxo-5-para-fluorophenyl-1,4-dihydropyridazine-3-carboxamide]
half-life at 1 μM [1]: 3.22 h | microsomal CLint at 1 μM [1]: 7.2 µL/min/mg | Vz_obs iv (apparent distribution volume) (Rat PK evaluation; IV 1 mg/kg): 0.42 L/kg | bioavailability (Rat PK evaluation; IV 1 mg/kg, PO 5 mg/kg): 59.1% | AUC(0-t) (Rat PK evaluation; [2]): 78.6 µg·h/mL | clearance (Rat PK evaluation; IV 1 mg/kg): 0.036 L/h/kg | half-life (Rat PK evaluation; [3]): 13.7 h | Tmax (Rat PK evaluation; PO 5 mg/kg): 4 h | AUC(0-t) (Rat PK evaluation; [4]): 246 µg·h/mL | half-life (Rat PK evaluation; [5]): 12.2 h

COc1cc2nccc(Oc3ncc(NC(=O)c4nn(C(C)C)cc(-c5ccc(F)cc5)c4=O)cn3)c2cc1OC [Compound 34, N-(2-((6,7-dimethoxyquinolin-4-yl)oxy)pyrimidine-5-yl)-5-para-fluorophenyl-1-isopropyl-4-oxo-1,4-dihydropyridazine-3-carboxamide]
half-life at 1 μM [1]: 4.62 h | microsomal CLint at 1 μM [1]: 5 µL/min/mg | Vz_obs iv (apparent distribution volume) (Rat PK evaluation; IV 1 mg/kg): 0.15 L/kg | bioavailability (Rat PK evaluation; IV 1 mg/kg, PO 5 mg/kg): 80.4% | AUC(0-t) (Rat PK evaluation; [2]): 81 µg·h/mL | clearance (Rat PK evaluation; IV 1 mg/kg): 0.013 L/h/kg | half-life (Rat PK evaluation; [3]): 7.46 h | Tmax (Rat PK evaluation; PO 5 mg/kg): 4 h | AUC(0-t) (Rat PK evaluation; [4]): 321 µg·h/mL | half-life (Rat PK evaluation; [5]): 8.31 h

COc1cc2nccc(Oc3ncc(NC(=O)c4nn(C5CC5)cc(-c5ccc(F)cc5)c4=O)cn3)c2cc1OC [Compound 37, 1-cyclopropyl-N-(2-((6,7-dimethoxyquinolin-4-yl)oxy)pyrimidine-5-yl)-5-para-fluorophenyl-4-oxo-1,4-dihydropyridazine-3-carboxamide]
half-life at 1 μM [1]: 8.88 h | microsomal CLint at 1 μM [1]: 2.6 µL/min/mg | Vz_obs iv (apparent distribution volume) (Rat PK evaluation; IV 1 mg/kg): 0.12 L/kg | bioavailability (Rat PK evaluation; IV 1 mg/kg, PO 5 mg/kg): 78.7% | AUC(0-t) (Rat PK evaluation; [2]): 69.7 µg·h/mL | clearance (Rat PK evaluation; IV 1 mg/kg): 0.014 L/h/kg | half-life (Rat PK evaluation; [3]): 5.98 h | Tmax (Rat PK evaluation; PO 5 mg/kg): 4 h | AUC(0-t) (Rat PK evaluation; [4]): 273 µg·h/mL | half-life (Rat PK evaluation; [5]): 7.73 h

COc1cc2nccc(Oc3ccc(NC(=O)c4nn(C(C)C)cc(-c5ccc(F)cc5)c4=O)nc3)c2cc1OC [Compound 15, N-(5-((6,7-dimethoxyquinolin-4-yl)oxy)pyridin-2-yl)-5-(4-fluorophenyl)-1-isopropyl-4-oxo-1,4-dihydropyridazine-3-carboxamide]
half-life at 1 μM [1]: 6.42 h | microsomal CLint at 1 μM [1]: 3.6 µL/min/mg | Vz_obs iv (apparent distribution volume) (Rat PK evaluation; IV 1 mg/kg): 1.23 L/kg | bioavailability (Rat PK evaluation; IV 1 mg/kg, PO 5 mg/kg): 78.9% | AUC(0-t) (Rat PK evaluation; [2]): 18.1 µg·h/mL | clearance (Rat PK evaluation; IV 1 mg/kg): 0.047 L/h/kg | half-life (Rat PK evaluation; [3]): 18.5 h | AUC(0-t) (Rat PK evaluation; [4]): 67.4 µg·h/mL | half-life (Rat PK evaluation; [5]): 20.5 h

COc1cc2nccc(Oc3ccc(NC(=O)c4cn(C5CC5)cc(-c5ccc(F)cc5)c4=O)nc3)c2cc1OC [Compound 30, N-(5-((6,7-dimethoxyquinolin-4-yl)oxy)pyridin-2-yl)-1-cyclopropyl-4-oxo-5-para-fluorophenyl-1,4-hydropyridin-3-carboxamide]
half-life at 1 μM [1]: 0.888 h | microsomal CLint at 1 μM [1]: 26 µL/min/mg | Vz_obs iv (apparent distribution volume) (Rat PK evaluation; IV 1 mg/kg): 0.30 L/kg | bioavailability (Rat PK evaluation; IV 1 mg/kg, PO 5 mg/kg): 78.7% | AUC(0-t) (Rat PK evaluation; [2]): 41.4 µg·h/mL | clearance (Rat PK evaluation; IV 1 mg/kg): 0.024 L/h/kg | half-life (Rat PK evaluation; [3]): 8.68 h | Tmax (Rat PK evaluation; PO 5 mg/kg): 6 h | AUC(0-t) (Rat PK evaluation; [4]): 152 µg·h/mL | half-life (Rat PK evaluation; [5]): 13.4 h

COc1cc2nccc(Oc3ccc(NC(=O)c4nn(C5CC5)cc(-c5ccc(F)cc5)c4=O)nc3)c2cc1OC [Compound 31]
half-life at 1 μM [1]: 14.4 h | microsomal CLint at 1 μM [1]: 1.6 µL/min/mg | Vz_obs iv (apparent distribution volume) (Rat PK evaluation; IV 1 mg/kg): 0.14 L/kg | bioavailability (Rat PK evaluation; IV 1 mg/kg, PO 5 mg/kg): 27.7% | AUC(0-t) (Rat PK evaluation; [2]): 224 µg·h/mL | clearance (Rat PK evaluation; IV 1 mg/kg): 0.003 L/h/kg | half-life (Rat PK evaluation; [3]): 32.6 h | Tmax (Rat PK evaluation; PO 5 mg/kg): 4 h | AUC(0-t) (Rat PK evaluation; [4]): 310 µg·h/mL | half-life (Rat PK evaluation; [5]): 19.2 h

COc1cc2nccc(Oc3ccc(NC(=O)c4nn(C5CC5)cc(-c5ccc(F)cc5)c4=O)cn3)c2cc1OC [Compound 36]
half-life at 1 μM [1]: 5.02 h | microsomal CLint at 1 μM [1]: 4.6 µL/min/mg | Vz_obs iv (apparent distribution volume) (Rat PK evaluation; IV 1 mg/kg): 0.095 L/kg | bioavailability (Rat PK evaluation; IV 1 mg/kg, PO 5 mg/kg): 57.5% | AUC(0-t) (Rat PK evaluation; [2]): 167 µg·h/mL | clearance (Rat PK evaluation; IV 1 mg/kg): 0.0058 L/h/kg | half-life (Rat PK evaluation; [3]): 11.6 h | Tmax (Rat PK evaluation; PO 5 mg/kg): 4 h | AUC(0-t) (Rat PK evaluation; [4]): 463 µg·h/mL | half-life (Rat PK evaluation; [5]): 12.7 h
